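Cultured in 96-well plates, cells were exposed to test compound for 48 hours across five concentrations. At the GI50, growth is halved. TGI is the concentration that stops growth completely.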
Key:
Assay in all cases: NCI tumour cell line growth inhibition, 48 h
OVCAR-3 ovarian = system: OVCAR-3 ovarian
NCI-H226 lung = system: NCI-H226 lung
RPMI-8226 leukemia = system: RPMI-8226 leukemia
EKVX NSCLC = system: EKVX NSCLC
HCT-116 colon = system: HCT-116 colon
HOP-92 NSCLC = system: HOP-92 NSCLC
CAKI-1 renal = system: CAKI-1 renal
NCI/ADR-RES ovarian = system: NCI/ADR-RES ovarian
PC-3 prostate = system: PC-3 prostate
MALME-3M melanoma = system: MALME-3M melanoma

SMILES | TGI (OVCAR-3 ovarian) | TGI (NCI-H226 lung) | TGI (RPMI-8226 leukemia) | TGI (EKVX NSCLC) | TGI (HCT-116 colon) | TGI (HOP-92 NSCLC) | GI50 (OVCAR-3 ovarian) | GI50 (CAKI-1 renal) | TGI (CAKI-1 renal) | GI50 (NCI-H226 lung) | GI50 (NCI/ADR-RES ovarian) | TGI (NCI/ADR-RES ovarian) | GI50 (PC-3 prostate) | TGI (PC-3 prostate) | GI50 (MALME-3M melanoma) | TGI (MALME-3M melanoma) | GI50 (HCT-116 colon) | GI50 (HOP-92 NSCLC) | GI50 (RPMI-8226 leukemia) | GI50 (EKVX NSCLC)
c1ccc(-c2csc3ncn4cnnc4c23)cc1 | > 100 µM | > 100 µM | > 100 µM | > 100 µM | > 100 µM | 84.7 µM | – | – | – | – | – | – | – | – | – | – | – | – | – | –
Fc1ccc2nc(-c3nc(-c4ccccc4)n4ccccc34)[nH]c2c1 | 15.1 µM | 5.8 µM | – | – | 3.82 µM | 6.42 µM | 4.29 µM | 3.38 µM | 15.1 µM | 1.8 µM | 2.23 µM | 6.01 µM | 1.82 µM | 4.24 µM | 2.06 µM | 4.33 µM | 2 µM | 1.73 µM | – | –
COc1ccc2c(c1)C(=O)c1c-2c(=O)n(CCCN(C)C)c2cc(OC)c(OC)cc12 | 26.9 µM | > 100 µM | 42.3 µM | 30.7 µM | 21.4 µM | > 100 µM | 13.7 µM | 1.48 µM | > 100 µM | 3.39 µM | 5.93 µM | 23.6 µM | 11.4 µM | 26.5 µM | – | – | 4.53 µM | > 100 µM | 8.14 µM | 16.5 µM
COc1cc(/C=C/C(=O)O[C@H]2[C@H](O[C@@H]3O[C@@H](C)[C@H](O)[C@@H](O)[C@H]3O)[C@@H](O)[C@H](OCCc3ccc(O)c(O)c3)O[C@@H]2COC2OCC(O)(CO)C2O)ccc1O (stereo not given in full) | > 100 µM | > 100 µM | > 100 µM | > 100 µM | > 100 µM | > 100 µM | > 100 µM | > 100 µM | > 100 µM | > 100 µM | > 100 µM | > 100 µM | > 100 µM | > 100 µM | – | – | > 100 µM | 0.402 µM | > 100 µM | > 100 µM
N#C/C(=C1\OC(=N)C(c2ccc(Cl)cc2Cl)C1=O)c1ccc(Cl)cc1Cl (stereo not given) | > 100 µM | > 100 µM | > 100 µM | > 100 µM | > 100 µM | > 100 µM | – | – | > 100 µM | – | – | – | – | – | – | > 100 µM | – | – | – | –
Clc1ccc([I+]c2ccc(Cl)cc2Cl)c(Cl)c1 | 3.09 µM | – | 5.25 µM | – | 3.67 µM | – | 1.65 µM | 1.61 µM | 3.32 µM | – | 9.47 µM | 32 µM | 1.94 µM | 4.72 µM | 1.73 µM | 3.61 µM | 1.85 µM | – | 2.19 µM | –
O=C(c1c(O)cc(O)cc1O)C1Cc2ccccc21 (stereo not given) | – | > 100 µM | > 100 µM | – | > 100 µM | > 100 µM | – | – | > 100 µM | – | – | – | – | – | – | > 100 µM | – | – | – | –
CC(=O)OCC(CC[CH2][Sn]([Cl])([Cl])[c]1ccccc1)OC(C)=O (stereo not given) | 42.8 µM | > 100 µM | 58.9 µM | > 100 µM | 31.9 µM | 33.4 µM | 20 µM | 14.6 µM | 30.9 µM | 30.7 µM | – | – | – | – | – | – | 18 µM | 17.1 µM | 22.9 µM | 44.4 µM

Source: PubChem BioAssay (NCI)
